ChEMBL document CHEMBL5050844 (2019)

Columns and labels:
[1] = Induction of anti-CD3 antibodies-stimulated human T cell activation at 1.11 uM assessed fold increase in IFN-gamma secretion measured by ELISA assay; type: functional, T cell line; note: reference of the scale not given here
[2] = Induction of anti-CD3 antibodies-stimulated human CD8+ T cell activation at 10 uM assessed fold increase in CD69 expression measured by flow cytometry analysis; type: functional, T cell line; note: reference of the scale not given here
[3] = Induction of anti-CD3/CD28 antibodies-stimulated human anergic T cell activation at 1.11 uM assessed fold increase in IFN-gamma secretion measured by ELISA assay; type: functional, T cell line
[4] = Induction of anti-CD3/CD28 antibodies-stimulated human T cell activation at 0.3 uM assessed fold increase in CD25 expression measured by ELISA assay; type: functional, T cell line
[5] = Induction of anti-CD3 antibodies-stimulated human exhausted CD8+ T cell activation assessed fold increase in CTLA4 expression measured by flow cytometry analysis; type: functional, T cell line; note: reference of the scale not given here
[6] = Induction of anti-CD3/CD28 antibodies-stimulated human T cell activation at 4 uM assessed fold increase in IL-2 secretion measured by ELISA assay; type: functional, T cell line
[7] = Induction of activation of human CD56+ CD3- NK cells co-cultured with human K562 cells in 1:1 ratio and assessed as increase in TNF-alpha secretion at 0.625 uM measured by ELISA assay; type: functional, Natural killer cell
[8] = Induction of anti-CD3 antibodies-stimulated human CD8+ T cell activation at 10 uM assessed fold increase in cell proliferation measured by flow cytometry analysis; type: functional, T cell line; note: reference of the scale not given here
[9] = Induction of anti-CD3/CD28 antibodies-stimulated human CD4+ T cell activation at 1.11 uM assessed fold increase in cell proliferation measured by flow cytometry analysis; type: functional, T cell line
[10] = Induction of activation of human CD56+ CD3- NK cells co-cultured with human K562 cells in 1:1 ratio and assessed as increase in TNF-alpha secretion at 10 uM measured by ELISA assay; type: functional, Natural killer cell
[11] = Induction of anti-CD3/CD28 antibodies-stimulated human CD4+ T cell activation at 10 uM assessed fold increase in CD69 expression measured by flow cytometry analysis; type: functional, T cell line
[12] = Induction of anti-CD3 antibodies-stimulated human T cell activation at 8 uM assessed fold increase in IL-2 secretion measured by ELISA assay; type: functional, T cell line; note: reference of the scale not given here
[13] = Induction of anti-CD3/CD28 antibodies-stimulated human T cell activation at 1.11 uM assessed fold increase in IFN-gamma secretion measured by ELISA assay; type: functional, T cell line
[14] = Induction of anti-CD3/CD28 antibodies-stimulated human CD8+ T cell activation at 1.11 uM assessed fold increase in CD69 expression measured by flow cytometry analysis; type: functional, T cell line
[15] = Induction of anti-CD3 antibodies-stimulated human T cell activation at 1.11 uM assessed fold increase in GM-CSF secretion measured by ELISA assay; type: functional, T cell line; note: reference of the scale not given here
[16] = Induction of anti-CD3 antibodies-stimulated human CD4+ T cell activation at 1.11 uM assessed fold increase in CD69 expression measured by flow cytometry analysis; type: functional, T cell line; note: reference of the scale not given here
[17] = Induction of anti-CD3 antibodies-stimulated human exhausted T cell activation assessed fold increase in IL-2 secretion measured by ELISA assay; type: functional, T cell line; note: reference of the scale not given here
[18] = Induction of anti-CD3 antibodies-stimulated human CD8+ T cell activation at 1.11 uM assessed fold increase in CD69 expression measured by flow cytometry analysis; type: functional, T cell line; note: reference of the scale not given here
[19] = Induction of anti-CD3/CD28 antibodies-stimulated human T cell activation at 10 uM assessed fold increase in TNF-alpha secretion measured by ELISA assay; type: functional, T cell line
[20] = Induction of anti-CD3 antibodies-stimulated human T cell activation at 10 uM assessed fold increase in GM-CSF secretion measured by ELISA assay; type: functional, T cell line; note: reference of the scale not given here
[21] = Induction of anti-CD3 antibodies-stimulated human CD4+ T cell activation at 10 uM assessed fold increase in CD69 expression measured by flow cytometry analysis; type: functional, T cell line; note: reference of the scale not given here
[22] = Induction of anti-CD3/CD28 antibodies-stimulated human CD4+ T cell activation at 1.11 uM assessed fold increase in CD69 expression measured by flow cytometry analysis; type: functional, T cell line
[23] = test system: B cell; assay: Induction of anti-IgM-stimulated human CD20+ B cell activation at 10 to 1000 uM assessed as increase in CD69 expression measured as mean fluorescence intensity AUC by flow cytometry analysis; type: functional, cell-based; settings: dose 10-1000 µM
[24] = Induction of activation of human CD56+ CD3- NK cells co-cultured with human K562 cells in 1:1 ratio and assessed as increase in IFN-gamma secretion at 10 uM measured by ELISA assay; type: functional, Natural killer cell
[25] = Induction of anti-CD3 antibodies-stimulated human T cell activation at 1 uM assessed fold increase in IL-2 secretion measured by ELISA assay; type: functional, T cell line; note: reference of the scale not given here
[26] = Induction of anti-CD3/CD28 antibodies-stimulated human T cell activation at 10 uM assessed fold increase in IFN-gamma secretion measured by ELISA assay; type: functional, T cell line
[27] = Induction of activation of human CD56+ CD3- NK cells co-cultured with human K562 cells in 1:1 ratio and assessed as increase in TNF-alpha secretion at 2.5 uM measured by ELISA assay; type: functional, Natural killer cell
[28] = Induction of allogenic human T cell activation at 10 uM assessed fold increase in cell proliferation; type: functional, T cell line
[29] = Induction of anti-CD3 antibodies-stimulated human T cell activation at 1.11 uM assessed fold increase in TNF-alpha secretion measured by ELISA assay; type: functional, T cell line; note: reference of the scale not given here
[30] = Induction of anti-CD3/CD28 antibodies-stimulated human CD4+ T cell activation at 10 uM assessed fold increase in cell proliferation measured by flow cytometry analysis; type: functional, T cell line
[31] = Induction of anti-CD3 antibodies-stimulated human T cell activation at 10 uM assessed fold increase in IFN-gamma secretion measured by ELISA assay; type: functional, T cell line; note: reference of the scale not given here
[32] = Induction of anti-CD3/CD28 antibodies-stimulated human CD8+ T cell activation at 10 uM assessed fold increase in cell proliferation measured by flow cytometry analysis; type: functional, T cell line
[33] = Induction of anti-CD3 antibodies-stimulated human T cell activation at 8 uM assessed fold increase in CD25 expression measured by ELISA assay; type: functional, T cell line; note: reference of the scale not given here
[34] = Induction of activation of human CD56+ CD3- NK cells co-cultured with human K562 cells in 1:1 ratio and assessed as increase in IFN-gamma secretion at 2.5 uM measured by ELISA assay; type: functional, Natural killer cell
[35] = Induction of anti-CD3 antibodies-stimulated human T cell activation at 1 uM assessed fold increase in CD25 expression measured by ELISA assay; type: functional, T cell line; note: reference of the scale not given here
[36] = Induction of anti-CD3/CD28 antibodies-stimulated human anergic T cell activation at 10 uM assessed fold increase in IFN-gamma secretion measured by ELISA assay; type: functional, T cell line
[37] = Induction of anti-CD3/CD28 antibodies-stimulated human anergic T cell activation at 0.37 uM assessed fold increase in IFN-gamma secretion measured by ELISA assay; type: functional, T cell line
[38] = Induction of anti-CD3/CD28 antibodies-stimulated human CD8+ T cell activation at 1.11 uM assessed fold increase in cell proliferation measured by flow cytometry analysis; type: functional, T cell line

C[C@H](Cc1nncn1C)c1cccc(N2Cc3c(cc(CN4CC[C@](C)(O)C4)cc3C(F)(F)F)C2=O)c1
fold change (FC) [1]: <=2 | fold change (FC) [2]: 1.401 | fold change (FC) [3]: >4.01 | fold change (FC) [4]: 1.01 | fold change (FC) [5]: >1.61 | fold change (FC) [6]: >=7.5 | fold change (FC) [7]: 1.01 | fold change (FC) [8]: >4 | fold change (FC) [9]: >4 | fold change (FC) [10]: 2.01 | fold change (FC) [11]: 1.401 | fold change (FC) [12]: >=0.201 | fold change (FC) [13]: 3.01 | fold change (FC) [14]: 1.201 | fold change (FC) [15]: 2.01 | fold change (FC) [16]: >1.601 | fold change (FC) [17]: 2.51 | fold change (FC) [18]: 1.201 | fold change (FC) [19]: 2.01 | fold change (FC) [20]: >4 | fold change (FC) [21]: >1.601 | fold change (FC) [22]: 1.401 | AUC [23]: 0.5 | fold change (FC) [24]: >=5 | fold change (FC) [25]: 0.101 | fold change (FC) [26]: >4 | fold change (FC) [27]: 2.01 | fold change (FC) [28]: 2.01 | fold change (FC) [29]: <=1.5 | fold change (FC) [30]: >4 | fold change (FC) [31]: <=2 | fold change (FC) [32]: >4 | fold change (FC) [33]: >=1.001 | fold change (FC) [34]: 2.01 | fold change (FC) [35]: >=1.001 | fold change (FC) [36]: >4.01 | fold change (FC) [37]: <=2.5 | fold change (FC) [38]: 3.01

Cc1n[nH]c(C)c1-c1cc2c(c(C(F)(F)F)c1)CN(c1cccc(C3(Cc4nncn4C)COC3)c1)C2=O
fold change (FC) [1]: <=2 | fold change (FC) [2]: 1.401 | fold change (FC) [3]: <=2.5 | fold change (FC) [4]: 1.01 | fold change (FC) [5]: >1.61 | fold change (FC) [6]: >=7.5 | fold change (FC) [7]: <=1 | fold change (FC) [8]: >4 | fold change (FC) [9]: >4 | fold change (FC) [10]: 2.01 | fold change (FC) [11]: 1.401 | fold change (FC) [12]: >=0.201 | fold change (FC) [13]: <=2 | fold change (FC) [14]: 1.201 | fold change (FC) [15]: 1.51 | fold change (FC) [16]: 1.401 | fold change (FC) [17]: <=2.5 | fold change (FC) [18]: 1.201 | fold change (FC) [19]: 2.01 | fold change (FC) [20]: 2.01 | fold change (FC) [21]: >1.601 | fold change (FC) [22]: 1.201 | AUC [23]: 1.01 | fold change (FC) [24]: 2.01 | fold change (FC) [25]: 0.101 | fold change (FC) [26]: >4 | fold change (FC) [27]: 1.01 | fold change (FC) [28]: <=2 | fold change (FC) [29]: <=1.5 | fold change (FC) [30]: >4 | fold change (FC) [31]: <=2 | fold change (FC) [32]: 3.01 | fold change (FC) [33]: >=1.001 | fold change (FC) [34]: 1.01 | fold change (FC) [35]: >=1.001 | fold change (FC) [36]: >4.01 | fold change (FC) [37]: <=2.5 | fold change (FC) [38]: 2.01

Cc1cc2c(c(C3CC3)n1)CN(c1cccc([C@H](C)Cc3nncn3C)c1)C2=O
fold change (FC) [1]: <=2 | fold change (FC) [2]: 1.201 | fold change (FC) [3]: <=2.5 | fold change (FC) [4]: 1.01 | fold change (FC) [5]: <=1.4 | fold change (FC) [6]: 2.51 | fold change (FC) [7]: <=1 | fold change (FC) [8]: 2.01 | fold change (FC) [9]: <=2 | fold change (FC) [10]: 1.01 | fold change (FC) [11]: 1.201 | fold change (FC) [12]: 0.101 | fold change (FC) [13]: <=2 | fold change (FC) [14]: <=1.2 | fold change (FC) [15]: <=1.5 | fold change (FC) [16]: <=1.2 | fold change (FC) [17]: <=2.5 | fold change (FC) [18]: <=1.2 | fold change (FC) [19]: 2.01 | fold change (FC) [20]: 1.51 | fold change (FC) [21]: 1.201 | fold change (FC) [22]: <=1.2 | AUC [23]: < 0.5 | fold change (FC) [24]: 2.01 | fold change (FC) [25]: 0.051 | fold change (FC) [26]: <=2 | fold change (FC) [27]: <=1 | fold change (FC) [28]: <=2 | fold change (FC) [29]: <=1.5 | fold change (FC) [30]: >4 | fold change (FC) [31]: <=2 | fold change (FC) [32]: 2.01 | fold change (FC) [33]: 0.801 | fold change (FC) [34]: 1.01 | fold change (FC) [35]: 0.601 | fold change (FC) [36]: 2.51 | fold change (FC) [37]: <=2.5 | fold change (FC) [38]: <=2

C[C@H](Sc1nncn1C)c1cccc(NC(=O)c2cccc(C(F)(F)F)n2)c1
fold change (FC) [1]: <=2 | fold change (FC) [2]: <=1.2 | fold change (FC) [3]: 2.51 | fold change (FC) [4]: 1.31 | fold change (FC) [5]: <=1.4 | fold change (FC) [6]: >=7.5 | fold change (FC) [7]: 1.01 | fold change (FC) [8]: <=2 | fold change (FC) [9]: <=2 | fold change (FC) [10]: 1.01 | fold change (FC) [11]: <=1.2 | fold change (FC) [12]: >=0.201 | fold change (FC) [13]: <=2 | fold change (FC) [14]: <=1.2 | fold change (FC) [15]: 1.51 | fold change (FC) [16]: <=1.2 | fold change (FC) [17]: <=2.5 | fold change (FC) [18]: <=1.2 | fold change (FC) [19]: 2.01 | fold change (FC) [20]: 2.01 | fold change (FC) [21]: <=1.2 | fold change (FC) [22]: <=1.2 | AUC [23]: 0.5 | fold change (FC) [24]: 2.01 | fold change (FC) [25]: 0.051 | fold change (FC) [26]: <=2 | fold change (FC) [27]: 1.01 | fold change (FC) [28]: <=2 | fold change (FC) [29]: 1.51 | fold change (FC) [30]: <=2 | fold change (FC) [31]: <=2 | fold change (FC) [32]: <=2 | fold change (FC) [33]: >=1.001 | fold change (FC) [34]: 1.01 | fold change (FC) [35]: 0.601 | fold change (FC) [36]: 2.51 | fold change (FC) [37]: <=2.5 | fold change (FC) [38]: <=2
